Columns and labels:
Experiment in all cases: KINOMEscan kinase binding assay
AXL = conditions: at 1 μM
In short: (§1)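 We measured how much kinase stayed bound to an immobilized small-molecule ligand when test compound was present. Binding ran at room temperature for 1 h, and the kinase eluted from the beads was counted by qPCR. Lower % Ctrl indicated tighter compound binding.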

[1] = tested on: EGFR(L747-S752del, P753S); conditions: at 1 μM
In short: as §1

EGFR(L858R, T790M) = conditions: at 1 μM
In short: (§2)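 Competition binding format: a test compound at a single concentration displaces phage-tagged or DNA-tagged kinase from an immobilized affinity ligand. After washing, kinase is released with 0.5 μM free ligand (30 min, room temperature) and measured by qPCR. Data are given as % Ctrl.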

EPHA7 = conditions: at 1 μM
In short: as §2

FES = conditions: at 1 μM
In short: as §1

FGFR4 = conditions: at 1 μM
In short: as §1

FLT3 = conditions: at 1 μM
In short: as §1

INSR = conditions: at 1 μM
In short: as §1

[2] = tested on: JAK1(JH1domain-catalytic); conditions: for % Ctrl: JAK1(JH1domain-catalytic), at 1 μM; for Kd: read-out: JAK1(JH1 domain-catalytic) Kd
In short: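 Dissociation constants came from the amount of kinase captured on the solid support across a test compound concentration series. Captured kinase, T7 phage-fused or HEK-293-made and DNA-tagged, was read by qPCR after a 1 h room-temperature binding step.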

TIE1 = conditions: at 1 μM
In short: as §1

SMILES | % Ctrl (AXL) | % Ctrl [1] | % Ctrl (EGFR(L858R, T790M)) | % Ctrl (EPHA7) | % Ctrl (FES) | % Ctrl (FGFR4) | % Ctrl (FLT3) | % Ctrl (INSR) | % Ctrl [2] | Kd [2] | % Ctrl (TIE1)
Cc1cc2c([nH]1)/C=C1\C(=O)Nc3ccc(cc31)-c1c(nn(C)c1C)OCCCN(C)C2=O [Cpd. 1, [3a(4)Z]-6,9,15,16-tetramethyl-9,10,11,12-tetrahydro-15H-1,17-(ethanediylidene)pyrazolo[4,3-n]dipyrrolo[3,2-g:3′,4′-j][1,5]oxazacyclopentadecine-3,8(2H,5H)-dione] | 85% | 100% | 89% | 91% | 92% | 95% | 92% | 95% | 82% | > 10 µM | 100%
Cc1cc2c([nH]1)/C=C1\C(=O)Nc3ccc(cc31)-c1c(nn(C)c1C)COCCN(C)C2=O [Cpd. 2, [3a(4)Z]-6,9,15,16-tetramethyl-10,11,13,15-tetrahydro-2H-1,17-(ethanediylidene)pyrazolo[4,3-m]dipyrrolo[3,2-f:3′,4′-i][1,4]oxazacyclopentadecine-3,8(5H,9H)-dione] | 43% | 100% | 62% | 89% | 100% | 100% | 67% | 100% | 100% | > 10 µM | 61%
Cc1cc2c([nH]1)/C=C1\C(=O)Nc3c(Cl)cc(cc31)-c1cn(C)nc1COC[C@@H](C)NC2=O [Cpd. 3, [3a(4)Z,10R]-20-chloro-6,10,15-trimethyl-10,11,13,15-tetrahydro-2H-1,17-(ethanediylidene)pyrazolo[4,3-m]dipyrrolo[3,2-f:3′,4′-i][1,4]oxazacyclopentadecine-3,8(5H,9H)-dione] | 86% | 90% | 72% | 100% | 99% | 92% | 57% | 78% | 100% | > 10 µM | 93%
C[C@@H]1COCc2nn(C)cc2-c2cc(Cl)c3c(c2)/C(=C/c2[nH]ccc2C(=O)N1)C(=O)N3 [Cpd. 4, [3a(4)Z,10R]-20-chloro-10,15-dimethyl-10,11,13,15-tetrahydro-2H-1,17-(ethanediylidene)pyrazolo[4,3-m]dipyrrolo[3,2-f:3′,4′-i][1,4]oxazacyclopentadecine-3,8(5H,9H)-dione] | 67% | 90% | 77% | 100% | 100% | 88% | 100% | 81% | 94% | > 10 µM | 84%
Cc1cc2c([nH]1)/C=C1\C(=O)Nc3c(Cl)cc(cc31)-c1cn(C)nc1COC[C@@H](C)N(C)C2=O [Cpd. 5, [3a(4)Z,10R]-20-chloro-6,9,10,15-tetramethyl-10,11,13,15-tetrahydro-2H-1,17-(ethanediylidene)pyrazolo[4,3-m]dipyrrolo[3,2-f:3′,4′-i][1,4]oxazacyclopentadecine-3,8(5H,9H)-dione] | 86% | 86% | 64% | 98% | 89% | 88% | 94% | 94% | 100% | > 10 µM | 91%
